In patent US7408026B1, “Synthesis of proteins by native chemical ligation” (The Scripps Research Institute, priority 1998, dated 2008):

Test system: neutrophil elastase release
Assay: assay for neutrophil elastase release (titration)
Type: cell-based
Conditions: compared with conventionally synthesized molecule and native sequence IL-8
Excerpt: Application of the native chemical ligation method to the total synthesis of a protein molecule was illustrated by the preparation of human interleukin 8 (IL-8). (M. Baggiolini, et al., FEBS Lett. (1989): vol. 307, p 97; I. Clark-Lewis, et al., J. Biol. Chem. (1994): vol. 269, p 16075 (1994); I. Clark-Lewis, Biochemistry (1991): vol. 30, p 3128; and K. Rajarathnam, et al., (1994): Biochemistry, (1994): vol. 29, p 1689.) The 72 amino acid polypeptide chain contains four Cys residues, which form two functionally critical disulfide bridges in the native protein molecule. The two unprotected synthetic peptide segments reacted cleanly to give the full length polypeptide chain in reduced form without further chemical manipulation (9). This successful ligation was particularly significant because the 33- and 39-residue IL-8 segments each contained two Cys residues, and together encompassed 18 of the 20 genetically encoded amino acids found in proteins. The purified product was folded and oxidized as previously described, to give IL-8 with a mass precisely 4 daltons less than that of the original ligation product, indicating the formation of two disulfide bonds. The properties of this folded product were identical to those of previously studied authentic IL-8 samples.

Row | Substance | maximal response in neutrophil elastase release
1 | [Ala33]IL-8: 72 amino acid human interleukin 8 analogue made by native chemical ligation of IL-8(1-33)αCOSBn and IL-8(34-72), then folded by air oxidation | indistinguishable and identical to native sequence IL-8
2 | corresponding molecule obtained by conventional synthesis: [Ala33]IL-8 obtained by conventional synthesis, used as comparator | indistinguishable and identical to native sequence IL-8
